Assay results published in patent US4367232A, “Piperidine derivatives” (Fordonal, S.A., priority 1976, dated 1983).

How the values were obtained:
Format in all cases: in vivo
[1] = system: apomorphineinduced gnawing behaviour; test: Inhibition of apomorphine-induced gnawing behaviour in the rat; details: oral, approximate ED50, read-out: Anti-apomorphine: approximate oral ED50 value for inhibition of apomorphineinduced gnawing behaviour
Source text: (§1) Standard pharmaceutical tests have been run with mice and rats using compounds of this invention. The instant compounds have been compared with Clebopride hydrochloride, i.e., N-(1-benzylpiperid-4-yl)-2-methoxy-4-amino-5-chlorobenzamide hydrochloride, which is disclosed in co-pending U.S. patent application Ser. No. 558,908 filed Mar. 17, 1975, incorporated herein by reference.
^(b) Approximate oral ED50 value for inhibition of
apomorphineinduced gnawing behaviour in the rat.

food intake (spaghetti) = test: Anorexia: inhibition of food intake (spaghetti) in screening test in the mouse; details: 10 mg kg^-1 p.os.
Description: as §1
^(c) Percentage inhibition of food intake (spaghetti) in screening
test at 10 mg kg^-1 p.os. in the mouse.

stomach emptying = test: Stomach emptying in the rat; details: 0.3, 1.0 or 3.0 mg kg^-1 i.p.
Source text: as §1
^(d) Active at 0.3 (+++), 1.0 (++) or 3.0 (+) mg kg^-1 i.p. in
causing significant stomach emptying in the rat.

| Structure (SMILES) | ED50 [1] | Anorexia: percentage inhibition of food intake (spaghetti) (food intake (spaghetti)) | Stomach emptying (stomach emptying) |
| --- | --- | --- | --- |
| COc1cc(N)c(Cl)cc1C(=O)NC1CCN(Cc2ccccc2)CC1.Cl [Clebopride hydrochloride, N-(1-benzylpiperid-4-yl)-2-methoxy-4-amino-5-chlorobenzamide hydrochloride, reference compound] | 2.5 mg/kg | 84% | – |
| COc1cc(N)c(Cl)cc1C(=O)N(C)C1CCN(C(C)c2ccccc2)CC1 (stereo not shown) [R3'=CH3; R7'=CH3, N-methyl-N-[1-(1-phenylethyl)piperid-4-yl]-2-methoxy-4-amino-5-chlorobenzamide] | > 300 mg/kg | 0% | 0 |
| CCN(C(=O)c1cc(Cl)c(N)cc1OC)C1CCN(Cc2ccccc2)CC1.Cl [R3'=H; R7'=C2H5, N-ethyl-N-(1-benzylpiperid-4-yl)-2-methoxy-4-amino-5-chlorobenzamide hydrochloride] | ~300 mg/kg | 0% | – |
| COc1cc(N)c(Cl)cc1C(=O)N(C)C1CCN(Cc2ccccc2)CC1.Cl [R3'=H; R7'=CH3, N-methyl-N-(1-benzylpiperid-4-yl)-2-methoxy-4-amino-5-chlorobenzamide hydrochloride] | > 300 mg/kg | 0% | – |
| COc1cc(N)c(Cl)cc1C(=O)NC1CC(C)N(Cc2ccccc2)C(C)C1 (stereo not shown) [R5'=2-Me; R6'=6-Me; R7'=H, N-(1-benzyl-2,6-dimethylpiperid-4-yl)-2-methoxy-4-amino-5-chlorobenzamide] | ~100 mg/kg | 89% | – |
| COc1cc(N)c(Cl)cc1C(=O)NC1CCN(Cc2ccccc2)CC1C (stereo not shown) [R5'=3-Me; R7'=H, N-(1-benzyl-3-methylpiperid-4-yl)-2-methoxy-4-amino-5-chlorobenzamide] | 58 mg/kg | 34% | – |
